Results on 61 compounds are retold here after a melting point compilation (Tetko et al.; mined from patent text by program, amines drawn as free bases though some values may be those of a salt).

What is called melting point is the temperature, or range, at which the solid turns liquid.

In the case of `N=C(NC=Cc1ccc([N+](=O)[O-])cc1)c1cccc(N)c1`, the melting point fell in the range of 146 to 148 °C.
The same measure for `CN(C)C=CC(=O)c1ccc(OC[C@H]2CO[C@](Cn3ccnc3)(c3ccc(Cl)cc3Cl)O2)cc1` (relative stereo): 145 °C; for `Oc1ccc(F)c(O)c1F`: 100 to 101 °C; for `C#CCn1c(C(F)(F)F)cc2ccccc21`: 59 °C.
Take `CC(F)(F)CC(Br)c1ccccc1S(N)(=O)=O` (stereo unspecified): the melting point was in the range of 104 to 105 °C.
For `COC(=O)N(C(S)=NC(C)C)c1c(C(C)C)cccc1C(C)C`, the melting point lay in the range of 98 to 99 °C.
Compound `COc1ccc(N2CC(=O)c3ccccc3S2)cc1O` showed a melting point of 228 to 232 °C.
For `Cc1cc(-n2ccnc2)c2cccc(OCc3c(Cl)ccc(S(=O)(=O)N4CCC[C@H]4C(=O)NCCO)c3Cl)c2n1`, the melting point came to 140 °C.
The compound `COC(=O)C(Oc1nc(OC)cc(OC)n1)C(C)(N=[N+]=[N-])c1ccccc1` (stereo unspecified) yielded a melting point of 118 to 120 °C.
For `Cc1c(C)c2c(c(C)c1NC(=O)CC(C)(C)C)C(c1ccc(C(C)C)cc1)CO2` (stereo unspecified), the melting point is 171 to 173 °C.
As for `COCCCOc1cc(CBr)ccc1OC`, the melting point was 50 to 51 °C.
On to `COc1cc(N)c(Cl)cc1C(=O)NC1CCN(CC2CCN(C(=O)c3ccco3)CC2)CC1`, for which the melting point is 179 to 181 °C.
The same measure for `CC(C)CN(Cc1nnc(-c2ncn3c2CN(C)C(=O)c2ccccc2-3)o1)CC(C)C`: 138 to 140 °C.
The compound `COC(=O)c1cc2scc(Br)c2nc1C(=O)OC` had a melting point of 165 to 168 °C.
For `CC(C)c1ccc(C2COc3ccc(Br)cc32)cc1` (stereo unspecified) the value was 90 to 91 °C; for `CC(Oc1cnn(-c2ccc(Cl)cc2)c(=O)c1Cl)c1ccc(Cl)cc1` (stereo unspecified), 135 to 138 °C; for `CC(C)c1cc(-c2c3ccccc3c(Br)c3sc4ccccc4c23)cc(C(C)C)c1O[C@H](C)C(=O)O`, 214 to 215 °C.
Take `CCCc1c(O)ccc(C(=O)OCc2ccccc2)c1O`: the melting point lay in the range of 86 to 88 °C.
In turn, `O=C(O)COc1ccc(SCc2ccc(OCc3ccc(F)cc3C(F)(F)F)cc2)c2c1CCC2` yielded a melting point of 125 to 127 °C.
The same measure for `COc1cc(COc2cc(C=O)n(-c3ccccc3)n2)ccc1OCc1nc(-c2ccco2)oc1C`: 103 to 104 °C; for `COc1ccc(CN(C)CCCCc2ccc(NC(=O)c3cccc4c(=O)c5cccc(F)c5[nH]c34)cc2)cc1OC`: 131 °C.
Consider `CCCCc1cc(C(=O)O)ccc1C(N)C(=O)O` (stereo unspecified), for which the melting point was 227 °C.
Take `CCCn1cc(S(C)=O)c(=O)c2ccccc21` (stereo unspecified): the melting point is 126 to 128 °C.
The compound `CCCOC(=O)c1ccc(C(=O)NNC(=O)c2ccc(C(=O)OCCC)cc2)cc1` came in with a melting point of 173 to 175 °C.
As for `COC(=O)c1ccc(NC(=O)c2sc3ccc(OC)cc3c2Cl)cc1`, the melting point was in the range of 205 to 206 °C.
For `CSc1c(C(N)=S)nn(-c2c(Cl)cc(C(F)(F)F)cc2Cl)c1N` the value was 161 °C.
`CN(C)c1ccc(-c2cc(=S)ss2)nn1` returned a melting point of 265 °C.
As for `COc1cccc2c1nc(C(F)F)n2-c1nc(N2CCOCC2)nc(N2CCC(NS(=O)(=O)C(F)(F)F)CC2)n1`, the melting point lay in the range of 282 to 285 °C.
For the compound `CC(=O)Nc1cccc(-c2nc3sccn3c2-c2ccnc(N[C@@H]3CCCN(S(=O)(=O)c4ccc(Cl)cc4)C3)n2)c1`, the melting point was in the range of 169 to 174 °C.
Compound `O=C(Nc1nc[nH]n1)c1ccc(-c2ccc3nnn(Cc4ccc5ncccc5c4)c3n2)cc1Cl` showed a melting point of 286 to 288 °C.
Compound `CSc1ccc2nc[nH]c(=O)c2c1` came in with a melting point of 203 to 204 °C.
Consider `N#CC(C(=O)Nc1ccccc1)C(=O)c1nn(-c2ccccc2)c2c1Cc1ccccc1-2` (stereo unspecified), for which the melting point was 273 to 277 °C.
On to `CN1CCN(c2cc(Cl)cc3c2c(=O)n(Cc2cccc4ccccc24)c(=O)n3Cc2ccccc2)CC1`, for which the melting point fell in the range of 75 to 89 °C.
For `Cc1c(C(=O)Nc2ccc(N3CCCC3)c(C#N)c2)cnn1-c1ccc(Cl)cc1` the value was 205 °C; for `CC(=O)OCCN1CCN(C(=O)Cn2c(=O)sc3ncc(Cl)cc32)CC1`, 153 to 155 °C; for `COC1(c2nc3ccccc3s2)C=CC(=O)C=C1`, 123 °C.
As to `CCOCc1nc2cnc3cc(Br)ccc3c2n1C[C@@H]1COC(C)(C)O1`, the melting point is 90 to 91 °C.
In the case of `CN(C)c1ncc2c(=O)n(Cc3ccccn3)sc2n1`, the melting point lay in the range of 145 to 146 °C.
`CCN(C(=O)OC)c1cccc(-c2ccc3nncn3n2)c1` had a melting point of 131 to 135 °C.
For the compound `N#CSc1sc(NC(=O)c2cccc(C(F)(F)F)c2)nc1C(F)(F)F`, the melting point lay in the range of 167 to 168 °C.
With `O=c1[nH]c2ccccc2n1CCN1CCN(Cc2ccccc2)CC1`, the melting point stood at 136 °C.
In the case of `O=C(O)CCc1cc2ccc(C(F)(F)F)cc2n1S(=O)(=O)c1ccccc1`, the melting point was in the range of 168 to 169 °C.
As for `CCCCNc1c(C(=O)OCC)cnc2c1c(C)nc1cc(C)nn12`, the melting point lay in the range of 114 to 116 °C.
The same measure for `COc1ccc(-c2cc(C(N)(C(F)(F)F)C(F)(F)F)sc2-c2ccc(OC)cc2)cc1`: 87 to 90 °C; for `COc1ccc(C(=O)Nc2ccccc2)cc1NS(=O)(=O)c1cccc2c(N(C)C)cccc12`: 231 to 232 °C.
`O=C(CCl)c1ccc2c(C(=O)CCl)ccc3c2c1CC3` returned a melting point of 184 to 187 °C.
For `CC(=O)N=c1[nH]c2ccccc2n1CCCN1CCN(C(c2ccccc2)c2ccccc2)CC1` the value was 143 °C; for `O=C(O)Cc1ccccc1CC(=O)Nc1cccc(/C=C/c2nc(C3CCC3)cs2)c1`, 160 to 162 °C; for `O=C(NCCC12CCC(=O)N1C(=O)CC2)OCc1ccccc1`, 118 to 120 °C.
The compound `O=C1CC=C(c2ccccc2F)c2cc(Cl)ccc2N1` displayed a melting point of 214 to 215 °C.
For `COC(=O)CCCc1cc2nc(Cl)ccc2n1S(=O)(=O)c1cccc2nc(C)sc12` the value was 138 °C.
`CCOC(=O)c1cc2cc(CCNS(=O)(=O)c3ccc(Cl)cc3)ccc2o1` returned a melting point of 123 to 125 °C.
Compound `c1ccc(-c2cc3c(nn2)-c2ccccc2CN3)cc1` yielded a melting point of 250 to 252 °C.
The compound `COc1cc(CCN2CCN(c3nsc4ccccc34)CC2)c([N+](=O)[O-])cc1OC` returned a melting point of 135 °C.
Turning to `COc1ccc(S(=O)(=O)N(CCNC(=O)NCc2ccccc2)c2ccc(C)cc2Cc2c(F)cccc2F)cc1OC`, the melting point came to 100 °C.
Regarding `CCOC(=O)c1cccc(NC(=O)c2ccc(OC)c(N)c2)c1`, the melting point lay in the range of 144 to 146 °C.
The same measure for `CS(=O)(=O)c1ccc(/C(=C\C2CCCCC2)C(=O)O)cc1`: 195 to 197 °C.
`c1ccc(-c2cc3nc(N4CCOCC4)c4ccccc4c3nn2)cc1` came in with a melting point of 214 to 216 °C.
Take `O=C1CCC(c2ccc3c(c2)NCCO3)=NN1`: the melting point lay within 198 to 199 °C.
As for `COC(=O)c1cc(-c2ccc(OC)c(F)c2)nn(CC(C)C)c1=O`, the melting point was 119 to 121 °C.
As to `COc1ccc(C(=O)Nc2c(Cl)cncc2Cl)c2c1oc1ccc(C(F)(F)F)cc12`, the melting point was determined as 298 °C.
